The source made the active and inactive calls. The rule behind the calls is not given here.
Columns and labels:
HT-29 [1] = test: Anti-necroptotic activity against TSZ induced necroptosis in human HT-29 cells preincubated for 12 hrs followed by TSZ addition by CellTiter-Glo luminescent cell viability assay; assay type: functional, cell-based
[2] = Cytotoxicity against human HT-29 cells assessed as reduction in cell viability; assay type: toxicity, cell-based
[3] = target: T1, Receptor-interacting serine/threonine-protein kinase 1 (Homo sapiens, UniProt Q13546); test: Binding affinity to RIPK1 (unknown origin)
T1 sequence (Q13546 whole entry): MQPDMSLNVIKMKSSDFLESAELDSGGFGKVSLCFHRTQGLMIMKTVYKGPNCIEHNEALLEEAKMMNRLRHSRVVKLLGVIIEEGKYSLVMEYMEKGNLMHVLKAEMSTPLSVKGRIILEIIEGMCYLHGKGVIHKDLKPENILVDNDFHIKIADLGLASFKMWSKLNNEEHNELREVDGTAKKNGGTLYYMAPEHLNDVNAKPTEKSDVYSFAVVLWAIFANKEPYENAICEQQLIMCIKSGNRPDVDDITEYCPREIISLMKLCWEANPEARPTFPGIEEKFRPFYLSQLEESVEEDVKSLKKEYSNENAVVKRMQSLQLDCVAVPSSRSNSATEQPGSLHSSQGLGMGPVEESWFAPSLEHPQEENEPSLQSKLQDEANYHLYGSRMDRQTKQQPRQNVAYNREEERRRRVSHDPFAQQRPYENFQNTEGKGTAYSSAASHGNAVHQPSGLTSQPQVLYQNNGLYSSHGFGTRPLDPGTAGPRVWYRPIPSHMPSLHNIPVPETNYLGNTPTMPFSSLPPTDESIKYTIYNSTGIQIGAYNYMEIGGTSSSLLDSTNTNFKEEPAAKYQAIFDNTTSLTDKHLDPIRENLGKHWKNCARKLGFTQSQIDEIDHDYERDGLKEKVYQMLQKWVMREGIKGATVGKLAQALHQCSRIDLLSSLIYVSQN

U-937 = test: Anti-necroptotic activity against TSZ induced necroptosis in human U-937 cells preincubated with compound followed by TSZ addition for 12 hrs; assay type: functional, cell-based
HT-29 [4] = test: Anti-necroptotic activity against TSZ induced necroptosis in human HT-29 cells incubated for 12 hrs; assay type: functional, cell-based
HT-29 [5] = test: Anti-necroptotic activity against TCZ induced necroptosis in human HT-29 cells incubated for 16 hrs; assay type: functional, cell-based
[6] = target: T2, Receptor-interacting serine/threonine-protein kinase 3 (Homo sapiens, UniProt Q9Y572); test: Binding affinity to RIPK3 (unknown origin)
Target sequence in this assay (Q9Y572 whole entry): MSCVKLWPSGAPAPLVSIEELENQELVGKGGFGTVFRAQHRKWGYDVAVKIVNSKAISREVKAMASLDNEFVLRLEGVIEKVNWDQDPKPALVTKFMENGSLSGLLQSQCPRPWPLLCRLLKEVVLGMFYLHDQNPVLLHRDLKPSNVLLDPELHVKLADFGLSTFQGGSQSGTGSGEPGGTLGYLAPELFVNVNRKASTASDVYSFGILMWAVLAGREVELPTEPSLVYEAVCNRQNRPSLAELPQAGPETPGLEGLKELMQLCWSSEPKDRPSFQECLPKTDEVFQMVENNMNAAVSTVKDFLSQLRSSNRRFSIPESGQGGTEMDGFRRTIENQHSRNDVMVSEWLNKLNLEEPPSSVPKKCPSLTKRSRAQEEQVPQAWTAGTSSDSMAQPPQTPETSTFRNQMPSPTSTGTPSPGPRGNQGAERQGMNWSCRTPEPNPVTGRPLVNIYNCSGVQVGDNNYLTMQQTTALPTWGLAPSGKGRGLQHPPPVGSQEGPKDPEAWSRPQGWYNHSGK

Homo sapiens = organism: Homo sapiens; test: Selectivity ratio of Kd for RIPK3 (unknown origin) to Kd for RIPK1 (unknown origin)
Mus musculus [7] = test: Protection against mTNF-alpha induced SIRS in C57BL/6J mouse assessed as increase in survival rate at 10 mg/kg preincubated for 1 hr followed by mTNF-alpha addition measured upto 60 hrs; assay type: functional; conditions: time <= 61 hrs
Mus musculus [8] = test: Protection against mTNF-alpha induced SIRS in C57BL/6J mouse assessed as increase in survival rate at 5 mg/kg preincubated for 1 hr followed by mTNF-alpha addition measured upto 60 hrs; assay type: functional; conditions: time <= 61 hrs
Mus musculus [9] = test: Protection against mTNF-alpha induced SIRS in C57BL/6J mouse assessed as increase in survival rate at 2.5 mg/kg preincubated for 1 hr followed by mTNF-alpha addition measured upto 60 hrs; assay type: functional; conditions: time <= 61 hrs
[10] = target: T3, Receptor-interacting serine/threonine-protein kinase 1 (Homo sapiens) (UniProt Q13546); test: Inhibition of RIPK1 phosphorylation in TSZ induced human HT-29 cells at 100 nM incubated for 2 to 6 hrs by immunoblotting analysis; assay type: cell-based; conditions: time 2-6 hrs
T3 sequence (whole entry): T1 sequence (Q13546 whole entry)

[11] = target: T4, Mixed lineage kinase domain-like protein (Homo sapiens) (UniProt Q8NB16); test: Inhibition of MLKL phosphorylation in TSZ induced human HT-29 cells at 100 nM incubated for 2 to 6 hrs by immunoblotting analysis; assay type: cell-based; conditions: time 2-6 hrs
T4 sequence (whole entry): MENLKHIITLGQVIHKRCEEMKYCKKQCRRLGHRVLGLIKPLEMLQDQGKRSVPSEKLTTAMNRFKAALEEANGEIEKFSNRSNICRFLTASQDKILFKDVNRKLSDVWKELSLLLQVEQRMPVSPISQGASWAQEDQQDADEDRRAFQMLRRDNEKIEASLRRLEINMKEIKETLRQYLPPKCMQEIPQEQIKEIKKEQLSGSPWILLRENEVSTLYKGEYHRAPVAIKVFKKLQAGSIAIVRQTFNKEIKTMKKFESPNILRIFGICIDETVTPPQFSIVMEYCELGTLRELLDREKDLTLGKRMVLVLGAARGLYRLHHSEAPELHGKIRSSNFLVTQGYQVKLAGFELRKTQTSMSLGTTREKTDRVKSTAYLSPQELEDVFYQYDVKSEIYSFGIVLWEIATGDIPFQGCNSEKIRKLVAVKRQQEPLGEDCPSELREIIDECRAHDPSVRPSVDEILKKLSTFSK

[12] = target: T3, Receptor-interacting serine/threonine-protein kinase 1 (Homo sapiens); test: Inhibition of RIPK1 phosphorylation in TSZ induced human HT-29 cells incubated for 6 hrs by immunoblotting analysis; assay type: cell-based; conditions: dose 25-100 nM
[13] = target: T4, Mixed lineage kinase domain-like protein (Homo sapiens); test: Inhibition of MLKL phosphorylation in TSZ induced human HT-29 cells incubated for 6 hrs by immunoblotting analysis; assay type: cell-based; conditions: dose 25-100 nM
HT-29 [14] = test: Inhibition of TSZ induced necrosomes formation in human HT-29 cells at 100 nM incubated for 6 hrs by Western blotting analysis; assay type: functional, cell-based
Mus musculus [15] = organism: Mus musculus; test: Protection against TNF-induced SIRS in C57BL/6J mouse assessed as reduction in body temperature loss preincubated for 1 hr followed by mTNF-alpha addition measured after 6 hrs […]; assay type: functional, organism-based; conditions: time 7.0 hrs
[16] = target: T2, Receptor-interacting serine/threonine-protein kinase 3; conditions: HT-29, dose 100.0 nM, time 2-6 hrs
Target sequence in this assay (Q9Y572 whole entry, looked up): as the sequence (Q9Y572 whole entry) above
Description: Inhibition of RIPK3 phosphorylation in TSZ induced human HT-29 cells at 100 nM incubated for 2 to 6 hrs by immunoblotting analysis

[17] = target: T2, Receptor-interacting serine/threonine-protein kinase 3; conditions: HT-29, dose 25-100 nM, time 6.0 hrs
Target sequence in this assay (Q9Y572 whole entry, looked up): as the sequence (Q9Y572 whole entry) above

Mus musculus [18] = test: Protection against mTNF-alpha induced SIRS in C57BL/6J mouse assessed as increase in survival rate at 20 mg/kg preincubated for 1 hr followed by mTNF-alpha addition measured upto 60 hrs; assay type: functional; conditions: time <= 61 hrs

SMILES	EC50 (HT-29 [1])	CC50 [2]	also measured
COc1ccccc1-c1cccc2cc(C(=O)N[C@H]3COc4ccccc4N(C)C3=O)[nH]c12	775 nM	> 100000 nM	–
COc1cccc(-c2cccc3cc(C(=O)N[C@H]4COc5ccccc5N(C)C4=O)[nH]c23)c1	128 nM	> 100000 nM	–
CN1C(=O)[C@@H](NC(=O)c2nnc(Cc3ccccc3)[nH]2)COc2ccccc21 [GSK2982772]	–	> 50000 nM	–
CN1C(=O)[C@@H](NC(=O)c2cc3cccc(-c4ccc(C(F)(F)F)cc4)c3[nH]2)COc2ccccc21	3850 nM	> 100000 nM	–
CN1C(=O)[C@@H](NC(=O)c2cc3cccc(-c4ccccc4F)c3[nH]2)COc2ccccc21	32.3 nM	> 100000 nM	Kd [3]: 190 nM
CN1C(=O)[C@@H](NC(=O)c2cc3cccc(-c4ccc5ccccc5c4)c3[nH]2)COc2ccccc21	18100 nM	> 100000 nM	–
CN1C(=O)[C@@H](NC(=O)c2cc3cccc(-c4ccc(-c5ccccc5)cc4)c3[nH]2)COc2ccccc21	438 nM	> 100000 nM	–
Cc1ccccc1-c1cccc2cc(C(=O)N[C@H]3COc4ccccc4N(C)C3=O)[nH]c12	45.4 nM	> 100000 nM	Kd [3]: 270 nM
Cc1ccc(-c2cccc3cc(C(=O)N[C@H]4COc5ccccc5N(C)C4=O)[nH]c23)cc1	1250 nM	> 100000 nM	–
CN1C(=O)[C@@H](NC(=O)c2cc3cccc(-c4cccc(-c5ccccc5)c4)c3[nH]2)COc2ccccc21	> 10000 nM	> 100000 nM	–
CN1C(=O)[C@@H](NC(=O)c2cc3cccc(-c4cc(F)ccc4F)c3[nH]2)COc2ccccc21	88.5 nM	> 100000 nM	Kd [3]: 190 nM
Cc1cccc(-c2cccc3cc(C(=O)N[C@H]4COc5ccccc5N(C)C4=O)[nH]c23)c1C	302 nM	> 100000 nM	–
CN1C(=O)[C@@H](NC(=O)c2cc3cccc(-c4ccccc4)c3[nH]2)COc2ccccc21	16.2 nM	> 100000 nM	Activity (U-937): Dose-Dependent Effect; Activity (HT-29 [4]): Dose-Dependent Effect; Activity (HT-29 [5]): Active; Kd [6]: 2400 nM; Kd [3]: 190 nM; Selectivity ratio (Homo sapiens): 8; Activity (Mus musculus [7]): 100%; Activity (Mus musculus [8]): 100%; Activity (Mus musculus [9]): 75%; inhibition [10]: Active; inhibition [11]: Active; inhibition [12]: Dose-Dependent Effect; inhibition [13]: Dose-Dependent Effect; inhibition (HT-29 [14]): Active; Activity (Mus musculus [15]): Active; inhibition [16]: Active; inhibition [17]: Dose-Dependent Effect
COc1ccc(-c2cccc3cc(C(=O)N[C@H]4COc5ccccc5N(C)C4=O)[nH]c23)cc1	3800 nM	> 100000 nM	–
CN1C(=O)[C@@H](NC(=O)c2cc3cccc(-c4ccc(F)cc4)c3[nH]2)COc2ccccc21	356 nM	> 100000 nM	–
CN1C(=O)[C@@H](NC(=O)c2cc3cccc(-c4cccc(F)c4)c3[nH]2)COc2ccccc21	96 nM	> 100000 nM	–
Cc1ccc(-c2cccc3cc(C(=O)N[C@H]4COc5ccccc5N(C)C4=O)[nH]c23)c(C)c1	4360 nM	> 100000 nM	–
Cc1ccc(-c2cccc3cc(C(=O)N[C@H]4COc5ccccc5N(C)C4=O)[nH]c23)cc1C	1660 nM	> 100000 nM	–
CN1C(=O)[C@@H](NC(=O)c2cc3cccc(-c4cccc(F)c4F)c3[nH]2)COc2ccccc21	145 nM	> 100000 nM	Kd [3]: 260 nM
Cc1cccc(C)c1-c1cccc2cc(C(=O)N[C@H]3COc4ccccc4N(C)C3=O)[nH]c12	1480 nM	> 100000 nM	–
CN1C(=O)[C@@H](NC(=O)c2cc3cccc(-c4cccc(C(F)(F)F)c4)c3[nH]2)COc2ccccc21	2060 nM	> 100000 nM	–
CN1C(=O)[C@@H](NC(=O)c2n[nH]c(Cc3ccccc3)n2)COc2ccccc21 [GSK2982772]	4.1 nM	–	Activity (Mus musculus [15]): Active; Activity (Mus musculus [18]): 90%
CN1C(=O)[C@@H](NC(=O)c2cc3cccc(-c4ccccc4C(F)(F)F)c3[nH]2)COc2ccccc21	163 nM	> 100000 nM	–
Cc1ccc(C)c(-c2cccc3cc(C(=O)N[C@H]4COc5ccccc5N(C)C4=O)[nH]c23)c1	2060 nM	> 100000 nM	–
CN1C(=O)[C@@H](NC(=O)c2cc3cccc(-c4cccc5ccccc45)c3[nH]2)COc2ccccc21	956 nM	> 100000 nM	–
CN1C(=O)[C@@H](NC(=O)c2cc3cccc(-c4ccccc4-c4ccccc4)c3[nH]2)COc2ccccc21	> 10000 nM	> 100000 nM	–
CN1C(=O)[C@@H](NC(=O)c2cc3cccc(-c4c(F)cccc4F)c3[nH]2)COc2ccccc21	2170 nM	> 100000 nM	–
CN1C(=O)[C@@H](NC(=O)c2cc3cccc(-c4ccc(F)c(F)c4)c3[nH]2)COc2ccccc21	128 nM	> 100000 nM	–
Cc1cccc(-c2cccc3cc(C(=O)N[C@H]4COc5ccccc5N(C)C4=O)[nH]c23)c1	271 nM	> 100000 nM	–
CN1C(=O)[C@@H](NC(=O)c2cc3cccc(-c4ccc(F)cc4F)c3[nH]2)COc2ccccc21	392 nM	> 100000 nM	Kd [3]: 200 nM
